US5079247A, “N^1 -substituted benz(cd)indol-2-imine compounds as cardiovascular agents” (American Cyanamid Company, priority 1990, dated 1992)
Where a name gives a salt, the structure may show the parent alone.

Tests used:
[1] = test system: CaCl2-induced cardiac arrhythmias, fibrillation and cardiac death in mice; assay: Antiarrhythmic/antifibrillatory activity in anesthetized mice, calcium chloride challenge; type: in vivo, mice of the Swiss Webster Strain; details: Mus musculus, iv, 0.25 h, calcium chloride 200 mg/kg i.v., read-out: CaCl2 Mice Surviving / Mice Tested (converted); for responders at 10 mg/kg: Dose = 10 mg/kg I.V., 15 minutes observation
From the text: (§1) Intravenous administration of high doses of calcium or potassium chloride in animals produces cardiac arrhythmias, cardiac fibrillation and cardiac arrest. Any agent that can prevent these events is considered an antiarrhythmic/antifibrillatory agent. (Meth. and Find Exptl. Clin Pharmacal.2:223-252(1980); Pharmacol Ther. 24:401-433 (1984); Experimental Cardiac and Antiarrhythmic Drugs, L. Szekeres and Gy. J. Dapp, Akademiai Kiado Preso, Budapest, 9-448 (1971)).
(§2) The method employed is as follows: Male mice of the Swiss Webster Strain (Charles River, Wilmington, MA) weighing 25-35 g were anesthetized with ethyl carbamate (urethan) (1.5g/kg body weight i.p.). A 25-gauge needle attached to PE-20 tubing was inserted into a caudal vein for drug administration. The lead II ECG was recorded by needle electrodes placed subcutaneously in the limbs. All data were collected on a Gould Brush recorder. Animals were observed 5 minutes before drug administration. A 5, 15 or 30 minute period following drug administration was allowed before the bolus injection of calcium chloride, 200 mg/ kg i.v. or potassium chloride, 62.5 mg/kg i.v. Control mice received 4 ml/kg of 0.9% sodium chloride i.v. Mice were observed an additional 15 minutes for arrhythmias,fibrillation, survival or death. Any compound at a dose of less than 20 mg/kg i.v. in either test that protects from cardiac death 3 or more mice out of 6 mice, is considered active.

[2] = test system: KCl-induced cardiac arrhythmias, fibrillation and cardiac death in mice; assay: Antiarrhythmic/antifibrillatory activity in anesthetized mice, potassium chloride challenge; type: in vivo, mice of the Swiss Webster Strain; details: Mus musculus, iv, 0.25 h, potassium chloride 62.5 mg/kg i.v.; for responders at 10 mg/kg: Dose = 10 mg/kg I.V., 15 minutes observation, read-out: KCl Mice Surviving / Mice Tested (converted)
From the text: as §1, §2

[3] = target: T1, thromboxane synthetase enzyme (Rattus norvegicus, UniProt P49430); assay: Thromboxane synthetase enzyme inhibition (TXB2 formation in platelet suspension, RIA); type: cell-based, Okamoto-Aoki spontaneously hypertensive rats (SHR); details: concentration 1 × 10^-4 M; SHR platelet suspension, 10 minutes at 37° C.
T1 construct: The platelets were isolated by centrifuging the PRP for 10 minutes; from tissue; host or cells: washed platelets from arterial blood of Okamoto-Aoki spontaneously hypertensive rats (animals from Taconic Farms)
T1 sequence (P49430 1-533): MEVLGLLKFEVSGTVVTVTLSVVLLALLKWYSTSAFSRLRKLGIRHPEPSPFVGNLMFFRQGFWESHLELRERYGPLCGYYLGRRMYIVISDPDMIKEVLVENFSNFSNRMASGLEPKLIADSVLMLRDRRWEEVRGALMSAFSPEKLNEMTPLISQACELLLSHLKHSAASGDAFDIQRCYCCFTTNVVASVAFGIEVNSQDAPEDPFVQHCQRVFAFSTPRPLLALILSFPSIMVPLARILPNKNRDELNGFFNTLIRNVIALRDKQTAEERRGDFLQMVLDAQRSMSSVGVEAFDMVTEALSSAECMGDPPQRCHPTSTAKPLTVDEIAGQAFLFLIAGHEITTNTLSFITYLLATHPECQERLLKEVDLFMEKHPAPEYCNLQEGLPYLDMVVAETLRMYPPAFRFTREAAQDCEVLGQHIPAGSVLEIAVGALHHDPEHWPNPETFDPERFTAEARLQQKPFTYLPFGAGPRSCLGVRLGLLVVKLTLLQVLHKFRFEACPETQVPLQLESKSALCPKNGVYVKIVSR
Experimental: Under urethan anethesia, […] of arterial blood from Okamoto-Aoki spontaneously hypertensive rats (SHR) (Taconic Farms, Germantown, New York) between 19 and 24 weeks in age was collected in 1 ml of 3.2% sodium citrate in a polystyrene tube. The blood was diluted with 3 ml of cold saline and centrifuged at room temperature for 15 minutes at 460Xg. The platelet rich plasma (PRP) was separated. The platelets were isolated by centrifuging the PRP for 10 minutes at 1060Xg and were washed in 4 ml of cold oxygenated Krebs phosphate buffer, pH 7.4. The chilled platelets, recovered from centrifuging at 800Xg for 10 minutes, were resuspended in oxygenated Krebs phosphate buffer and diluted to contain 4.5-6.0×10^4 platelets/μl. The inhibition of thromboxane (TX) formation was studied by determining the concentration of thromboxane B2 (TXB2), the stable hydrolysis product of TXA2. Assay samples, prepared on ice, contained 200 μl platelet suspension, 50 μl saline, and 50 μl vehicle or drug under study at a concentration of 1×10^-4 M. The samples were incubated for 10 minutes at 37° C. in metabolic shaker. The reaction was terminated by immersing the tubes in an ice bath and adding 50 μl of 0.5M citric acid. The samples were centrifuged for 10 minutes in a refrigerated centrifuge and the supernatants thus obtained were decanted and stored at -20° C. The TXB2 content for each sample was determined by a direct radioimmunoassay (RIA) utilizing a TXB2 specific RIA kit purchased from New England Nuclear, Boston, Massachusetts and expressed as pg TXB2 formed minute^-1 sample^-1, from which the percent inhibition of TXB2 formation was calculated.

[4] = test system: spontaneously hypertensive rats of the Okamoto strain; assay: Hypotensive activity in spontaneously hypertensive rats (method of Chan and Poorvin); type: in vivo, rat; details: by gavage, 100 mg/kg or less, two doses 24 hours apart; MABP at 28 hours after initial dose; average baseline MABP 160±1.5 mm of mercury
Experimental: The novel compounds of the present invention are active hypotensive agents and were tested for hypotensive activity by the method of P. S. Chan and D. Poorvin, Clinical and Experimental Hypertension, 1 (6), 817-830 (1979). Male, 16 week old, spontaneously hypertensive rats of the Okamoto strain, from Taconic Farms, Germantown, New York, having an average mean arterial blood pressure of 160±1.5 mm of mercury, were used in the test. One to 3 rats were used per test compound. […] A second identical dose of the test compound, without sodium chloride loading was given 24 hours later. At 28 hours after the initial dose the mean arterial blood pressure (MABP) was measured. The procedure was repeated in a second and third rat when necessary.

c1ccc(CN2C(=NCCCn3ccnc3)c3cccc4cccc2c34)cc1 [Example 5, N-[1-(Phenylmethyl)benz[cd]indol-2 (1H)-ylidene]-1H-imidazole-1-propanamine]
responders at 10 mg/kg [1]: 83.3%
responders at 10 mg/kg [2]: 83.3%

c1ccc(CN2C(=NCCCn3ccnc3)c3cccc4cccc2c34)cc1 [Example 6, N-[1-(Phenylmethyl)benz[cd]indol-2(1H)-ylidene]-1H-imidazole-1-propanamine,(E)-2-butenedioate (1:2)]
inhibition at 100 µM [3]: 90%

c1ccc(C(c2ccccc2)N2C(=NCCCn3ccnc3)c3cccc4cccc2c34)cc1 [Example 7, N-[1 (Diphenylmethyl)benz[cd]indol-2(1H)-ylidene]-1H-imidazole-1 propanamine]
inhibition at 100 µM [3]: 75%
responders at 10 mg/kg [1]: 16.7%
responders at 10 mg/kg [2]: 83.3%

Cl.Cl.c1ccc(OCCCN2C(=NCCCn3ccnc3)c3cccc4cccc2c34)cc1 [Example 12, N-[1-(3-Phenoxypropyl)benz[cd]indol-2(1H)-ylidene]-1H-imidazole-1-propanamine, dihydrochloride]
inhibition at 100 µM [3]: 90%
Avg. MABP in mm Hg (No. of Rats) [4]: 122 mm Hg

c1ccc(CCCN2C(=NCCCn3ccnc3)c3cccc4cccc2c34)cc1 [Example 13, N-[1-(3-Phenylpropyl)benz[cd]indol-2(1H)-ylidene]-1H-imidazole-1-propanamine, (E)-2-butenedioate (1:2)]
inhibition at 100 µM [3]: 92%

COc1cccc(CN2C(=NCCCn3ccnc3)c3cccc4cccc2c34)c1 [Example 14, N-[1-[(3Methoxyphenyl)methyl]benz[cd]indol-2(1H)-ylidene]-1H-imidazole-1-propanamine]
Avg. MABP in mm Hg (No. of Rats) [4]: 104 mm Hg
responders at 10 mg/kg [1]: 16.7%
responders at 10 mg/kg [2]: 66.7%

N#CCCCCN1C(=NCCCn2ccnc2)c2cccc3cccc1c23 [Example 15, 2-[[3-(1H-Imidazol-1 yl)propyl]imino]benz[cd]indole-1(2H)-pentanenitrile]
inhibition at 100 µM [3]: 94%
responders at 10 mg/kg [1]: 16.7%
responders at 10 mg/kg [2]: 50%

CCCCCCN1C(=NCCCn2ccnc2)c2cccc3cccc1c23 [Example 16, N-(1-Hexylbenz[cd]indol-2(1H)-ylidene)-1H-imidazole 1-propanamine, (E)-2-butenedioate (1:2)]
inhibition at 100 µM [3]: 94%

CCN(CC)CCN1C(=NCCCn2ccnc2)c2cccc3cccc1c23 [Example 17, N,N-Diethyl-2-[[3-(1H-imidazol-1-yl)propyl]imino]benz[cd]indole-1(2H)-ethanamine, (E)-2butenedioate (1:3)]
responders at 10 mg/kg [1]: 16.7%
responders at 10 mg/kg [2]: 66.7%

CN1C(=NCCCn2ccnc2)c2cccc3cccc1c23 [Example 18, N-[1-Methylbenz[cd]indol-2(1H)-ylidene]-1H-imidazole-1-propanamine, (E)-2-butenedioate (1:2)]
responders at 10 mg/kg [1]: 0%
responders at 10 mg/kg [2]: 66.7%

c1cc2c3c(cccc3c1)N(CCCN1C(=NCCCn3ccnc3)c3cccc4cccc1c34)C2=NCCCn1ccnc1 [Example 20, N,N'-[1,3-Propanediylbis(benz[cd]indol-1(2H)-ylidene)]bis-1H-imidazole-1-propanamine]
responders at 10 mg/kg [1]: 66.7%
responders at 10 mg/kg [2]: 0%

CN1C(=NCCCn2ccnc2)c2cccc3c(CO)ccc1c23 [Example 21, 1,2-Dihydro-2-[[3-(1H-imidazol-1-yl)propyl]imino]-1-methylbenz[cd]indole-6-methanol, (E)-2-butanedioate (1:1)]
responders at 10 mg/kg [1]: 43.8%
responders at 10 mg/kg [2]: 83.3%

CN1C(=NCCCCn2ccnc2)c2cccc3cccc1c23 [Example 22, N-(1-Methylbenz[cd]indol-2(1H)-ylidene)-1H-imidazole-1-butanamine]
Avg. MABP in mm Hg (No. of Rats) [4]: 112 mm Hg

CCN(CC)CCN1C(=NCc2cccnc2)c2cccc3cccc1c23 [Example 25, N,N-Diethyl-2-[(3-pyridinylmethyl)imino]benz[cd]indol-1(2H)ethanamine, (E)-2-butenedioate (2:3)]
inhibition at 100 µM [3]: 91%
responders at 10 mg/kg [1]: 16.7%
responders at 10 mg/kg [2]: 50%

c1ccc(CN2C(=NCCCCc3cccnc3)c3cccc4cccc2c34)cc1 [Example 29, N-[1-(Phenylmethyl)benz[cd]indol-2(1H)-ylidene]-3-pyridinebutanamine, (E)-2 butenedioate (1:2)]
responders at 10 mg/kg [1]: 33.3%
responders at 10 mg/kg [2]: 66.7%

c1ccc(C(c2ccccc2)N2C(=NCCCCc3cccnc3)c3cccc4cccc2c34)cc1 [Example 30]
responders at 10 mg/kg [1]: 16.7%
responders at 10 mg/kg [2]: 83.3%

c1cncc(CCCCN=C2c3cccc4cccc(c34)N2Cc2cccnc2)c1 [Example 31, N-[1-(3-Pyridinylmethyl)benz[cd]indol 2(1H)-ylidene]-3-pyridinebutanamine, dihydrochloride]
inhibition at 100 µM [3]: 96%
Avg. MABP in mm Hg (No. of Rats) [4]: 119 mm Hg

CCCCCCN1C(=NCCCCc2cccnc2)c2cccc3cccc1c23 [Example 33, N-(1-Hexylbenz[cd]indol-2(1H)-ylidene)-3-pyridinebutanamine, (E)-2-butenedioate (2:3)]
inhibition at 100 µM [3]: 93%

CCN(CC)CC(=O)Nc1c(C)cccc1C [Lidocaine, reference compound]
responders at 10 mg/kg [1]: 83.3%
responders at 10 mg/kg [2]: 50%

CCN(CC)CCNC(=O)c1ccc(N)cc1 [Procainamide, reference compound]
responders at 5 mg/kg ([2]; 5 mg/kg i.v., read-out: KCl Mice Surviving / Mice Tested): 70%

C=C[C@H]1C[N@@]2CC[C@H]1C[C@@H]2[C@@H](O)c1ccnc2ccc(OC)cc12 [Quinidine, reference compound]
responders at 15 mg/kg ([1]; 15 mg/kg i.v.): 75%
responders at 15 mg/kg ([2]; 15 mg/kg i.v., read-out: KCl Mice Surviving / Mice Tested): 30%
